In publication PMC7136483 (Frontiers in Pharmacology, 2020):
Values joined by “and” are separate entries in the source; they are usually repeats but may differ in a detail not shown here. Identical values can stand only once.

Key:
[1] = Joint parent-metabolite NLME PK model of tamoxifen and endoxifen (structural, statistical and age covariate estimates); assay type: in vivo, human
Description: PK parameters for tamoxifen and endoxifen were simultaneously estimated.
The statistical model aimed to incorporate four levels of variability around the structural model. Thus, and due to the nature of the database, a nested hierarchy of random-effects components was set up comprising interstudy (ISV), interindividual (IIV), interoccasion (IOV), and residual unexplained variability (RUV) (see Supplementary Figure S1). While ISV and IIV characterize random deviations between different studies and patients, respectively, IOV describes the random variability within an individual patient across different occasions. The RUV captures the remaining variability across all observations.
IIV was evaluated on all structural PK parameters and implemented using exponential IIV models (Equation 1). Resulting individual PK parameters were assumed to arise from a log-normal distribution in which the ηik values are normally distributed with mean zero and variance estimate ωk2 .
While 27% of the patients had samples collected on one occasion (study day, i.e., one dosing interval = 1 day) only, 73% of patients in the PK database had samples collected on three to four occasions (i.e., 3–4 days) with rich sampling during one occasion (dosing interval) in studies 3–6.
For the RUV, a log-transformed both sides approach was applied (Equation 3).
Since tamoxifen and endoxifen PK were analyzed simultaneously, separate but correlated RUV terms were estimated.
A study effect was introduced as additional variability term on top of the random individual effect (IIV) (study hierarchically above individual level, see Supplementary Figure S1 and Equation 4) ([Laporte-Simitsidis et al., 2000]),
The covariate model was developed using a full covariate model approach ([Tunblad et al., 2008]; [Ravva et al., 2009]; [Gastonguay, 2011]): first, covariates were pre-selected based on specific criteria and introduced simultaneously into a full covariate model (for details see Supplementary Material 1, see section “Covariate Submodel Development”). Secondly, a covariate model refinement step was performed, selecting the most appropriate covariate functions for the preselected covariates, with respect to numerical and statistical evaluation criteria. Finally, the refined full covariate model was evaluated based on physiological plausibility of the estimated effect, statistical significance and clinical relevance criteria using advanced model evaluation techniques (Supplementary Material 1, see section “Advanced Model Evaluation Diagnostics”). To explore and quantify the reduction of unexplained variability upon introduction of covariate effects, the statistical model with the four levels of variability was exploited.
Furthermore, endoxifen PK parameter values (CL30/F = 5.1 L/h and VENDX/F = 400 L) were informed and used from a clinical study administering endoxifen only ([Ahmad et al., 2010b]).

[2] = Clinical PK database of six pooled tamoxifen studies: observed minimum steady-state concentrations
[3] = target: T1, CYP2D6 (Homo sapiens, UniProt P10635); assay: NLME PK model covariate: SSRI (paroxetine/fluoxetine) comedication (CYP2D6 inhibitors); assay type: in vivo; conditions: during strong CYP2D6-inhibitor comedication
T1 construct: endogenous in cells; host or cells: breast cancer patients (in vivo, clinical PK data)
Description: (§1) Secondly, a covariate model refinement step was performed, selecting the most appropriate covariate functions for the preselected covariates, with respect to numerical and statistical evaluation criteria. Finally, the refined full covariate model was evaluated based on physiological plausibility of the estimated effect, statistical significance and clinical relevance criteria using advanced model evaluation techniques (Supplementary Material 1, see section “Advanced Model Evaluation Diagnostics”). To explore and quantify the reduction of unexplained variability upon introduction of covariate effects, the statistical model with the four levels of variability was exploited.

[4] = tested on: CYP2D6; assay: NLME PK model covariate: CYP2D6 activity score on endoxifen formation; assay type: in vivo, human
Description: To derive a patient’s CYP2D6 phenotype, the available genotype information, i.e., detected genetic polymorphisms (single nucleotide polymorphisms, SNPs, and copy number variants, CNVs), was translated via three steps: (1) From the reported nucleotide variation (wild-type ‘wt’ or altered nucleotide sequence ‘mut’) to a biallelic genotype, e.g., wt/mut: ^∗1/^∗41; (2) from the genotype to the activity score (AS), e.g., ^∗1/^∗41 → 1.5; (3) From the AS to the ‘traditional’ CYP2D6 phenotype category, e.g., 1.5 → normal metabolizer, gNM. […] Thus, each patient in the PK database was assigned a CYP2D6 activity score (seven AS categories from 0 to 3 in intervals of 0.5) and a respective CYP2D6 phenotype [four categories: poor (gPM, AS: 0), intermediate (gIM, AS: 0.5), normal (gNM, AS:1-2), and ultrarapid (gUM, […]) metabolizer; see Figure 1]. The prefix ‘g’ indicates the phenotype prediction from genotype.
as §1
CYP2D6 activity score The CYP2D6 AS is a multichotomous covariate with seven ordered categories from 0 to 3 (step size of 0.5). For each patient in the PK database, an AS was derived from the reported CYP2D6 genotype.
The AS was introduced as ordered categorical covariate applying a fractional change model with four categories representing the ‘traditional’ CYP2D6 phenotype classes investigating two different grouping types for the intermediate (IM) and normal (NM) metaboliser group (depending on whether AS=1 is classified as IM or NM, see Figure 1 in main text), or with six AS categories only grouping AS 2.5 and 3 (Equation 8). To model the CYP2D6 activity scores, fiveseparate categorical covariate effects (for AS subgroups: 0, 0.5, 1, 1.5 and 2.5-3) were estimated while AS=2 was set as reference category (i.e. for a typical patient with AS=2: CL23/F = θRef). An indicator variable XAS,i was coded as 1 for a patient belonging into the respective AS category or 0 otherwise.

[5] = design: method as in Ahmad et al., 2010b; conditions: fixed in model, ref Ahmad et al., 2010b, cited from earlier work
[6] = design: method as in earlier work; conditions: ref Johnson et al., 2004, Kisanga et al., Lim et al., 2005, Mürdter et al., 2011, Gjerde et al., 2012; cited from earlier work
[7] = cited from earlier work
[8] = interindividual variability, final model
[9] = interoccasion variability, final model
[10] = 20 mg dose group, across all studies, steady-state
[11] = fractional change of endoxifen formation vs AS 2

T1 sequence (P10635 whole entry): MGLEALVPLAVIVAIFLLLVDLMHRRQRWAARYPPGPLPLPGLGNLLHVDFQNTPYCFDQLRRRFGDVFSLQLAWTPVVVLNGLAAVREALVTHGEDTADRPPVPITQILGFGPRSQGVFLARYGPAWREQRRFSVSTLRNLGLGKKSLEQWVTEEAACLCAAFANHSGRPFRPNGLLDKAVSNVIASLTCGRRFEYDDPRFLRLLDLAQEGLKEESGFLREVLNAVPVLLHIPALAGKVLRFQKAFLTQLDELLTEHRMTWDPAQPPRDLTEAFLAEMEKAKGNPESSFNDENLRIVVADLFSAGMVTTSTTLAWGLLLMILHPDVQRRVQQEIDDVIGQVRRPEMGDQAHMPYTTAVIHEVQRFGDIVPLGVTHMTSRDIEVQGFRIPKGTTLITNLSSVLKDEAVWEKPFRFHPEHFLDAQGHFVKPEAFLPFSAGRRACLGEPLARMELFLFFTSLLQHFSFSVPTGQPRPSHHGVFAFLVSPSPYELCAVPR

Structure (SMILES): CC/C(=C(\c1ccccc1)c1ccc(OCCN(C)C)cc1)c1ccccc1 [tamoxifen, reference compound]
- ka ([1]; absorption rate constant, oral tamoxifen): 1.78 h⁻¹
- IIV CL20/F, variance estimate [1, 8]: 0.148
- IOV CL20/F, variance estimate [1, 9]: 0.0222
- total ISV before covariate introduction ([1]; interstudy variability): 31.2 % CV
- total ISV upon covariate introduction ([1]; interstudy variability): 16.1 % CV
- tlag ([1]; lag time): 0.389 h
- VTAM/F ([1]; relative central volume of distribution, reference patient): 1120 L
- CL20/F (Ref.) ([1]; relative clearance of tamoxifen, reference patient: CYP2D6 AS 2, 65 years, no rifampicin or SSRI): 5.77 L/h
- IOV CL20/F before implementing rifampicin effect ([1]; without covariate): 24.9 % CV
- range of Css,min [2, 10]: 3.05 to 448 ng/mL

Structure (SMILES): CC/C(=C(\c1ccc(O)cc1)c1ccc(OCCNC)cc1)c1ccccc1 [endoxifen, 4-hydroxy-N-desmethyl-tamoxifen]
- change in endoxifen formation [3]: −65%
- fractional decrease from CL23/F reference value ([4]; AS 1): 32.3%
- fractional decrease from CL23/F reference value ([4]; AS 1.5): 21.1%
- CL23/F_AS: 0 [4, 11]: −0.722
- CL23/F_AS: 0.5 [4, 11]: −0.510
- CL23/F_AS: 1 [4, 11]: −0.323
- CL23/F_AS: 1.5 [4, 11]: −0.211
- CL23/F_AS: 2.5-3 [4, 11]: 0.533
- reduced endoxifen formation efficiency CL23/F ([4]; intermediate metabolizers (AS: 0.5) vs AS 2): 51.0%
- reduced endoxifen formation efficiency CL23/F ([4]; poor metabolizers (AS: 0) vs AS 2): 72.2%
- increased CL23/F ([4]; ultrarapid metabolizer (AS ≥ 2.5) vs AS 2): 53.3%
- CL30/F ([5]; relative clearance of endoxifen): 5.1 L/h and 5.10 fixed L/h
- VENDX/F ([5]; relative volume of distribution of endoxifen): 400 L and 400 fixed L
- potency relative to parent tamoxifen [6]: 100 fold
- IIV CL23/F [1, 8]: 47.2 % CV
- IIV CL23/F, variance estimate [1, 8]: 0.201
- IOV CL23/F, variance estimate [1, 9]: 0.0289
- IOV CL23/F ([1]; interoccasion variability, final model (SSRI effect included)): 17.1 % CV
- CL23/F (Ref.) ([1]; relative formation of endoxifen, reference patient: CYP2D6 AS 2, 65 years, no rifampicin or SSRI): 0.493 L/h
- IIV CL23/F before covariate inclusion ([1]; without CYP2D6 AS and SSRI covariates): 63.3 % CV
- IOV CL23/F before considering SSRI effect ([1]; without covariate): 26.4 % CV
- %CVgeom of Css,min [2, 10]: 84.4%
- median Css,min [2, 10]: 10.7 ng/mL
- range of Css,min [2, 10]: 0.70 to 45.5 ng/mL
- overall risk of subtarget endoxifen concentrations, observed ([2]; observed population of PK database, CSS,min below 5.97 ng/mL): 28.9%
- hazard ratio of the endoxifen exposure-response relationship ([7]; ref Madlensky et al. (2011)): 0.71
- reduced risk of breast cancer recurrence related to endoxifen threshold concentration ([7]; ref Madlensky et al., 2011, Saladores et al., 2015): 26%
- breast cancer patients not reaching proposed target endoxifen concentrations ([7]; tamoxifen standard dosing, ref Madlensky et al., 2011): ~20%
